Results from ChEMBL document CHEMBL3779836, “Inhibition of Histone Demethylases Offers a Novel and Promising Approach for the Treatment of Cancer and Other Diseases” (ACS Med Chem Lett, 2016).

biological target: Histone lysine demethylase PHF8 (Homo sapiens, UniProt Q9UPP1); experiment: Inhibition of human PHF8 preincubated for 10 mins followed by substrate addition by AlphaLISA assay
Sequence (Q9UPP1 whole entry): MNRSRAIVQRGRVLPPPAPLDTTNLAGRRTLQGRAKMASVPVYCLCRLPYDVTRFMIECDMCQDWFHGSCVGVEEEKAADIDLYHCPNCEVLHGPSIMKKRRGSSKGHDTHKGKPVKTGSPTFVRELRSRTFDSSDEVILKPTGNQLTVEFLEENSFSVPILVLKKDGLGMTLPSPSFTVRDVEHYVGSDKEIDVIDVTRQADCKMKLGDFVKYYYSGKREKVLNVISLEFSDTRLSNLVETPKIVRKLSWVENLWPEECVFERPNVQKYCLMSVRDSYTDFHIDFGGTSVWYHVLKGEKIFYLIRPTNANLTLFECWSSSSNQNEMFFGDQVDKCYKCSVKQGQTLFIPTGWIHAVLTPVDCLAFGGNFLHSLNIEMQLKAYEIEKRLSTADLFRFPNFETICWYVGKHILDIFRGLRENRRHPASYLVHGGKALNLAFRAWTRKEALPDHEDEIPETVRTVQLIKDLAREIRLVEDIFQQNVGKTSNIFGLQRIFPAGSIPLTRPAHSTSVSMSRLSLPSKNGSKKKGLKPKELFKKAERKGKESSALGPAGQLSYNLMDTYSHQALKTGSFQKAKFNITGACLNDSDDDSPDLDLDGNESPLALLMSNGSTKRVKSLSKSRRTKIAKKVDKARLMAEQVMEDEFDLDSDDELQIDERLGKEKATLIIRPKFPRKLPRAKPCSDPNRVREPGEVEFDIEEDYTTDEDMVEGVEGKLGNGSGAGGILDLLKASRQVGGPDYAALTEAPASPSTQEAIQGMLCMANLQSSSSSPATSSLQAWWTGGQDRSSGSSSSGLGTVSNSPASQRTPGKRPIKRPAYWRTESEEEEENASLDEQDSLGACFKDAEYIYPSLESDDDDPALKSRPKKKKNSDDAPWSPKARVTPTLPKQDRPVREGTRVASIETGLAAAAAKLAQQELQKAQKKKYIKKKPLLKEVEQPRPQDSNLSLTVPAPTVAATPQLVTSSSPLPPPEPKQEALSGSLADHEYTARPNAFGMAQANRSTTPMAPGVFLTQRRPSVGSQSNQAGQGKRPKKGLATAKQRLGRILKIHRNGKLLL

Compound	IC50
CCN1CCC(CNCc2cc(C(=O)O)ccn2)C1=O (stereo not given)	< 250 nM
C[C@H](c1ccccc1)N1CC[C@@H](CNCc2cc(C(=O)O)ccn2)C1=O	< 250 nM
Cc1cn2c(n1)CCN(Cc1cc(C(=O)O)ccn1)CC2	< 250 nM
C[C@H](c1ccccc1)N1CCC[C@@H](CNCc2cc(C(=O)O)ccn2)C1=O	< 250 nM

Now from value to molecule:

IC50	Compound
< 250 nM	COc1ccc([C@@H](C)N2CCC[C@@H](CNCc3cc(C(=O)O)ccn3)C2=O)cc1
< 250 nM	C[C@H](c1ccccc1)N1CCC[C@H](CNCc2cc(C(=O)O)ccn2)C1=O

biological target: T1, Lysine-specific demethylase 4C (Homo sapiens, UniProt Q9H3R0); experiment: Inhibition of human KDM4C preincubated for 10 mins followed by substrate addition by AlphaLISA assay
T1 sequence (Q9H3R0 whole entry): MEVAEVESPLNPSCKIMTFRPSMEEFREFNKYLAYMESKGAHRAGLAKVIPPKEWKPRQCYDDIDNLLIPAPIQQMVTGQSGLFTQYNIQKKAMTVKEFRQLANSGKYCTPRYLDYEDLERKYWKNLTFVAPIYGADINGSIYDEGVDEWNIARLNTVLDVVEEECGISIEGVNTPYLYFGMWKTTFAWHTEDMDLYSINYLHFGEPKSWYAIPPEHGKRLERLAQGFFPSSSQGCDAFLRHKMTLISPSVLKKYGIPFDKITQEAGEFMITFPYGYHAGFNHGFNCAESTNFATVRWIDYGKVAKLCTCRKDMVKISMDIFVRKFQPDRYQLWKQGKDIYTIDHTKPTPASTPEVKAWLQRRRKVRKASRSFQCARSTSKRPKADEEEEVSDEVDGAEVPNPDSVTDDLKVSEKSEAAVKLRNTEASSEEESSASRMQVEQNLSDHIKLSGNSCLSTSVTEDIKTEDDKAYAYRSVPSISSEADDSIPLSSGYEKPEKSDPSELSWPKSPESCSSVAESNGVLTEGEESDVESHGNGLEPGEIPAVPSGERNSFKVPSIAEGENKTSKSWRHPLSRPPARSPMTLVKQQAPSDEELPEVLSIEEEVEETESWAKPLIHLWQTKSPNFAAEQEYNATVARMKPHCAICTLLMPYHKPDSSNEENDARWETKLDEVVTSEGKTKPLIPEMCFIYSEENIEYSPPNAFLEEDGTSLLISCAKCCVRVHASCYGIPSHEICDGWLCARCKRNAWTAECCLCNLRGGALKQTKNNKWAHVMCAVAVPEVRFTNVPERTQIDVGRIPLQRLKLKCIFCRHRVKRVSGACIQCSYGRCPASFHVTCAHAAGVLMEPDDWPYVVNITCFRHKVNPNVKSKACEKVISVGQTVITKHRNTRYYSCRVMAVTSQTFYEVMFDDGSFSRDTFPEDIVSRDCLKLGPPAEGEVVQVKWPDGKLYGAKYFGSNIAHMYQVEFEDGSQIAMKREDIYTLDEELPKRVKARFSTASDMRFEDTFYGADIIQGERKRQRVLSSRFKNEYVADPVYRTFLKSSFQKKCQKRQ

Compound	IC50
CCN1CCC(CNCc2cc(C(=O)O)ccn2)C1=O (stereo not given)	< 250 nM
C[C@H](c1ccccc1)N1CC[C@@H](CNCc2cc(C(=O)O)ccn2)C1=O	< 250 nM
Cc1cn2c(n1)CCN(Cc1cc(C(=O)O)ccn1)CC2	< 250 nM
C[C@H](c1ccccc1)N1CCC[C@@H](CNCc2cc(C(=O)O)ccn2)C1=O	< 250 nM

Next, values leading:

IC50	Compound
< 250 nM	COc1ccc([C@@H](C)N2CCC[C@@H](CNCc3cc(C(=O)O)ccn3)C2=O)cc1
< 250 nM	C[C@H](c1ccccc1)N1CCC[C@H](CNCc2cc(C(=O)O)ccn2)C1=O

biological target: T2, Lysine-specific demethylase 2B (Homo sapiens, UniProt Q8NHM5); experiment: Inhibition of human KDM2B preincubated for 10 mins followed by substrate addition by AlphaLISA assay
T2 sequence (Q8NHM5 whole entry): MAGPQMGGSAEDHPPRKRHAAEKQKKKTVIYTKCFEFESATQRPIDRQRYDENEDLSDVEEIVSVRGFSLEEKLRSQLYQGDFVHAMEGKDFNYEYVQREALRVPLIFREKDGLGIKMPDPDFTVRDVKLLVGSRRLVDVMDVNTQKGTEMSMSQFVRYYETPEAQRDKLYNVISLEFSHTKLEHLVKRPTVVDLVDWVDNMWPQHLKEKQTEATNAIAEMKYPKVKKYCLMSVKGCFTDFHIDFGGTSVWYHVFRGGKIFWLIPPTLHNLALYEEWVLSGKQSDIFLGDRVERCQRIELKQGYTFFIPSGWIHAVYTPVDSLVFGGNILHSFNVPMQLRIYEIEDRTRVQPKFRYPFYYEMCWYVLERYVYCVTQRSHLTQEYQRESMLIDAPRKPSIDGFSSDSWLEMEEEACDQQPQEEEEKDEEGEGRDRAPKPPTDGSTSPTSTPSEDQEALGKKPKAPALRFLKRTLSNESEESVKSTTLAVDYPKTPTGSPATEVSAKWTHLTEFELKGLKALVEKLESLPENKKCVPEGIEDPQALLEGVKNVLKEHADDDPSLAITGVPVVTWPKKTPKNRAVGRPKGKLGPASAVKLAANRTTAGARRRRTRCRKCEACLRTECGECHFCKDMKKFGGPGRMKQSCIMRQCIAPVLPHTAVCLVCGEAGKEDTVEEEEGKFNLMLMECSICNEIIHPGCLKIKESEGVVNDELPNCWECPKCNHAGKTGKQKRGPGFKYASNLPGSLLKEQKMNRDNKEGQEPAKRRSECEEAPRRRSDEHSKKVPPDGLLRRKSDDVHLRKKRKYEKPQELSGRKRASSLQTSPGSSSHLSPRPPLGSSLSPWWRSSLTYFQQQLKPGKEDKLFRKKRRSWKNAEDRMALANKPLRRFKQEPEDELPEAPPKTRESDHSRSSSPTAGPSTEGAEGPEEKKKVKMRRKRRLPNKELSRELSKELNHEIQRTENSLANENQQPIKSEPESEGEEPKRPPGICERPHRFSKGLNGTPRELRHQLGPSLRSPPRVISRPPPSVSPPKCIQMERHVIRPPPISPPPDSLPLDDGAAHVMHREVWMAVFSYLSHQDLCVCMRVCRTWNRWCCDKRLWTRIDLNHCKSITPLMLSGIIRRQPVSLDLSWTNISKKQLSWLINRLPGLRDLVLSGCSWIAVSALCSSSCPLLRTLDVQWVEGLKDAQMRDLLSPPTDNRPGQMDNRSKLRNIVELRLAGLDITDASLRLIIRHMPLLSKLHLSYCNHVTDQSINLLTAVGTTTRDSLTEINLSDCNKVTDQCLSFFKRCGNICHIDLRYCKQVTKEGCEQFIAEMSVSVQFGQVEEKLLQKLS

Compound	IC50
CCN1CCC(CNCc2cc(C(=O)O)ccn2)C1=O (stereo not given)	< 250 nM
C[C@H](c1ccccc1)N1CC[C@@H](CNCc2cc(C(=O)O)ccn2)C1=O	< 250 nM
Cc1cn2c(n1)CCN(Cc1cc(C(=O)O)ccn1)CC2	> 2500 nM
C[C@H](c1ccccc1)N1CCC[C@@H](CNCc2cc(C(=O)O)ccn2)C1=O	< 250 nM

Next, values leading:

IC50	Compound
< 250 nM	COc1ccc([C@@H](C)N2CCC[C@@H](CNCc3cc(C(=O)O)ccn3)C2=O)cc1
< 250 nM	C[C@H](c1ccccc1)N1CCC[C@H](CNCc2cc(C(=O)O)ccn2)C1=O

biological target: Lysine-specific demethylase 5B (Homo sapiens, UniProt Q9UGL1); experiment: Inhibition of human KDM5B preincubated for 10 mins followed by substrate addition by AlphaLISA assay
Sequence (Q9UGL1 whole entry): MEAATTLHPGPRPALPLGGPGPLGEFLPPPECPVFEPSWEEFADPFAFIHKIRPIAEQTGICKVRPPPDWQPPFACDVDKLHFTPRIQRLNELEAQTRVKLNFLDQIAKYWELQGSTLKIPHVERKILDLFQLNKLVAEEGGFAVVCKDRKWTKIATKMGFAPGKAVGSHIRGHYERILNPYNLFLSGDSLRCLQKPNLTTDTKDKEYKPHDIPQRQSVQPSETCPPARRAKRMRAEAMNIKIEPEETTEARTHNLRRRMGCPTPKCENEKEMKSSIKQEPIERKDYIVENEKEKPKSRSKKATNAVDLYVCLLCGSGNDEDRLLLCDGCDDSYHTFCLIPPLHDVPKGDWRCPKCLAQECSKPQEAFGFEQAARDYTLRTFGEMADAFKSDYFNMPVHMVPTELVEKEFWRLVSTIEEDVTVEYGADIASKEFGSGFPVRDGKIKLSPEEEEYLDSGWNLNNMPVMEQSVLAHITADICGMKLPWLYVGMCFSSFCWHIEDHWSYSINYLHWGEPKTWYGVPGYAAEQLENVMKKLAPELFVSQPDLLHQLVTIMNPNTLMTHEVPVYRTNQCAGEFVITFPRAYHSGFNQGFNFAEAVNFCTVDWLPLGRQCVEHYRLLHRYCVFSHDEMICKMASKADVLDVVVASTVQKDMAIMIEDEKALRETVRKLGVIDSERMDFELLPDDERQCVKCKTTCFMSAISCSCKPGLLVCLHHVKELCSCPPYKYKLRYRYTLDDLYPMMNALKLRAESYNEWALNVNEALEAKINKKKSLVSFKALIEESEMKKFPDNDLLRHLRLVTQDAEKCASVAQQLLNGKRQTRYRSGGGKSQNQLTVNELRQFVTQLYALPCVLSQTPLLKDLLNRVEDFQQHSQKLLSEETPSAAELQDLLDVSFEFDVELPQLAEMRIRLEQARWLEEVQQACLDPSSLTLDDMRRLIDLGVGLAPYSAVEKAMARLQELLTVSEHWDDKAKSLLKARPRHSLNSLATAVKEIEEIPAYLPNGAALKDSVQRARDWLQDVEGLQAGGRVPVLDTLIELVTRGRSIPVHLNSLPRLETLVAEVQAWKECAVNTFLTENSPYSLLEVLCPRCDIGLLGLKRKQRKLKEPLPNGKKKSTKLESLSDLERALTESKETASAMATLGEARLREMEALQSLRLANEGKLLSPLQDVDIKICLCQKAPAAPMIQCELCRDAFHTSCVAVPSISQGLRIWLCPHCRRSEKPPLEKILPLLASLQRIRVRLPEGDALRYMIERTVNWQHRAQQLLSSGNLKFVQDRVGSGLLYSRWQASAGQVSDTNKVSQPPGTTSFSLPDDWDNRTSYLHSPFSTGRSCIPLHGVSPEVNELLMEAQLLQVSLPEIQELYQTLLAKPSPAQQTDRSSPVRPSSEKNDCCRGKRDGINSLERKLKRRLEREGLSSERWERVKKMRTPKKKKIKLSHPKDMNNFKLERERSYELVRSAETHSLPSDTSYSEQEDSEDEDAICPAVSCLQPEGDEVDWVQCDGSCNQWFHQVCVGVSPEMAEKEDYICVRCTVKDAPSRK

Compound	IC50
CCN1CCC(CNCc2cc(C(=O)O)ccn2)C1=O (stereo not given)	< 250 nM
C[C@H](c1ccccc1)N1CC[C@@H](CNCc2cc(C(=O)O)ccn2)C1=O	< 250 nM
Cc1cn2c(n1)CCN(Cc1cc(C(=O)O)ccn1)CC2	< 250 nM
C[C@H](c1ccccc1)N1CCC[C@@H](CNCc2cc(C(=O)O)ccn2)C1=O	< 250 nM

Further lines, results first:

IC50	Compound
< 250 nM	COc1ccc([C@@H](C)N2CCC[C@@H](CNCc3cc(C(=O)O)ccn3)C2=O)cc1
< 250 nM	C[C@H](c1ccccc1)N1CCC[C@H](CNCc2cc(C(=O)O)ccn2)C1=O

biological target: Lysine-specific demethylase 6A (Homo sapiens, UniProt O15550); experiment: Inhibition of human KDM6A preincubated for 10 mins followed by substrate addition by AlphaLISA assay
Sequence (O15550 whole entry): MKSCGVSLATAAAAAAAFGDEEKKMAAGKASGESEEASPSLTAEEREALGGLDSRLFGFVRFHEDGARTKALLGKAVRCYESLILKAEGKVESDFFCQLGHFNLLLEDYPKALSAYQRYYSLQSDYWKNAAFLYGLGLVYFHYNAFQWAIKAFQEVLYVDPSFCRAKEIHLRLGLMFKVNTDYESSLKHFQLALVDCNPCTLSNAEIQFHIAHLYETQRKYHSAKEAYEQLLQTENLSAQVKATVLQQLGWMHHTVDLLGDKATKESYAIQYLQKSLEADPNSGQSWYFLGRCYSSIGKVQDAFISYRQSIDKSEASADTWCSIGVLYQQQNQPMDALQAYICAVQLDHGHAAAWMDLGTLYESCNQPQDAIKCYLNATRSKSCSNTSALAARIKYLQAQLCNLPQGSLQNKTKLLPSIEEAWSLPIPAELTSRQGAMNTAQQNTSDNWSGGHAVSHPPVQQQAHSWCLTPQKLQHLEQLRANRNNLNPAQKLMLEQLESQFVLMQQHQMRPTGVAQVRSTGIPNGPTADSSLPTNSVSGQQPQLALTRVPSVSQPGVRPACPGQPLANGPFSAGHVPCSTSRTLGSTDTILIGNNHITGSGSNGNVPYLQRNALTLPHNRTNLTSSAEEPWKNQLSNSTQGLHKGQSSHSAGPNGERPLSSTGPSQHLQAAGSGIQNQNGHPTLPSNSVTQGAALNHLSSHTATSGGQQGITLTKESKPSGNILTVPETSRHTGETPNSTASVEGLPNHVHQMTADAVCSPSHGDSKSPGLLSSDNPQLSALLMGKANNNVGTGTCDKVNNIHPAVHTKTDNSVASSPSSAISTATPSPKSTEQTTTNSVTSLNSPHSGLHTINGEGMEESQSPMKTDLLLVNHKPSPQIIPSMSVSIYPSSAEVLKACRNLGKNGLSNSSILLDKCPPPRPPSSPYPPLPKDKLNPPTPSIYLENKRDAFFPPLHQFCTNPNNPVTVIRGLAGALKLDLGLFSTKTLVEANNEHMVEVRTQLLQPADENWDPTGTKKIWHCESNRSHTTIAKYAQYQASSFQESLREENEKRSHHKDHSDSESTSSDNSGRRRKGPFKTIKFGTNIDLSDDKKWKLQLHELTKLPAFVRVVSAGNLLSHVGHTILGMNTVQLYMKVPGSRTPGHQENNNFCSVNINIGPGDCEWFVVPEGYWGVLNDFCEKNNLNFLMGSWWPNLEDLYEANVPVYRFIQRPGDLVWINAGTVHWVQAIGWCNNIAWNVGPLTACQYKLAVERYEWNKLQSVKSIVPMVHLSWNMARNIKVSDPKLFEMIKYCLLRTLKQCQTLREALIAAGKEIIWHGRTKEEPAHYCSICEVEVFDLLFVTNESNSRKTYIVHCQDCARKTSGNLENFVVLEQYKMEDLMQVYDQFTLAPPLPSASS

Compound	IC50
CCN1CCC(CNCc2cc(C(=O)O)ccn2)C1=O (stereo not given)	> 2500 nM
C[C@H](c1ccccc1)N1CC[C@@H](CNCc2cc(C(=O)O)ccn2)C1=O	> 2500 nM
Cc1cn2c(n1)CCN(Cc1cc(C(=O)O)ccn1)CC2	> 2500 nM
C[C@H](c1ccccc1)N1CCC[C@@H](CNCc2cc(C(=O)O)ccn2)C1=O	> 2500 nM

Next, values leading:

IC50	Compound
> 2500 nM	COc1ccc([C@@H](C)N2CCC[C@@H](CNCc3cc(C(=O)O)ccn3)C2=O)cc1
> 2500 nM	C[C@H](c1ccccc1)N1CCC[C@H](CNCc2cc(C(=O)O)ccn2)C1=O
